Values joined by “and” are separate entries in the source; they are usually repeats but may differ in a detail not shown here. Identical values can stand only once. Inconclusive results and toxic doses are left out. The calls were made as follows: active = survival T/C of 150% or more; inactive = T/C below 125% in these data.
Test system: CD2F1 mice, L1210 leukemia ip, survival T/C
Assay: NCI In Vivo Anticancer Drug Screen. Data for tumor model L1210 Leukemia (intraperitoneal) in CD2F1 (CDF1) mice
Settings: higher = longer survival
Summary of the method: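 Activity against a transplanted murine tumor was judged by comparing the compound group with a vehicle group. The outcome in the treated animals was divided by that in the controls.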

[1] = endpoint: mean survival time, dose: 50.0 mg/kg/injection, schedule: Q01DX009 (ip), vehicle: saline with Tween-80
[2] = endpoint: mean survival time, dose: 100.0 mg/kg/injection, schedule: Q01DX009 (ip), vehicle: saline with Tween-80
[3] = endpoint: mean survival time, dose: 100.0 mg/kg/injection, schedule: Q04DX003 (ip), vehicle: saline with Tween-80
[4] = endpoint: mean survival time, dose: 200.0 mg/kg/injection, schedule: Q04DX003 (ip), vehicle: saline with Tween-80
[5] = endpoint: mean survival time, dose: 400.0 mg/kg/injection, schedule: Q04DX003 (ip), vehicle: saline with Tween-80
[6] = endpoint: mean survival time, dose: 12.5 mg/kg/injection, schedule: Q01DX005 (ip), vehicle: water
[7] = endpoint: mean survival time, dose: 25.0 mg/kg/injection, schedule: Q01DX005 (ip), vehicle: water
[8] = endpoint: mean survival time, dose: 50.0 mg/kg/injection, schedule: Q01DX005 (ip), vehicle: water
[9] = endpoint: mean survival time, dose: 200.0 mg/kg/injection, schedule: Q01DX009 (ip), vehicle: saline with Tween-80

Measured: T/C

O=C1OC(=O)c2ccc([N+](=O)[O-])c3cccc1c23
inactive: endpoint: mean survival time, dose: 100.0 mg/kg/injection, schedule: Q04DX003 (ip), vehicle: Klucel (hydroxypropylcellulose) (HPC) 98 % of control | endpoint: mean survival time, dose: 200.0 mg/kg/injection, schedule: Q04DX003 (ip), vehicle: Klucel (hydroxypropylcellulose) (HPC) 106 % of control | endpoint: mean survival time, dose: 400.0 mg/kg/injection, schedule: Q04DX003 (ip), vehicle: Klucel (hydroxypropylcellulose) (HPC) 96 % of control

O=c1[nH]c(=S)c(SCc2ccccc2)nn1C1OC(COP(=O)(O)O)C(O)C1O (stereo not given)
inactive: endpoint: median survival time, dose: 5.63 mg/kg/injection, schedule: Q01DX005 (ip), vehicle: water 98 % of control | endpoint: median survival time, dose: 11.25 mg/kg/injection, schedule: Q01DX005 (ip), vehicle: water 98 % of control | endpoint: median survival time, dose: 22.5 mg/kg/injection, schedule: Q01DX005 (ip), vehicle: water 102 % of control | endpoint: median survival time, dose: 45.0 mg/kg/injection, schedule: Q01DX005 (ip), vehicle: water 105 % of control | endpoint: median survival time, dose: 90.0 mg/kg/injection, schedule: Q01DX005 (ip), vehicle: water 103 % of control

N#CCS(=O)(=O)c1cccc[n+]1[O-]
inactive: endpoint: median survival time, dose: 25.0 mg/kg/injection, schedule: Q01DX009 (ip), vehicle: saline with Tween-80 97 % of control | endpoint: median survival time, dose: 50.0 mg/kg/injection, schedule: Q01DX009 (ip), vehicle: saline with Tween-80 98 % of control | endpoint: median survival time, dose: 100.0 mg/kg/injection, schedule: Q01DX009 (ip), vehicle: saline with Tween-80 98 % of control | endpoint: median survival time, dose: 200.0 mg/kg/injection, schedule: Q01DX009 (ip), vehicle: saline with Tween-80 107 % of control | endpoint: median survival time, dose: 400.0 mg/kg/injection, schedule: Q01DX009 (ip), vehicle: saline with Tween-80 116 % of control

CC(c1ccccc1)n1cncc1C(=O)N1CCN(C)CC1 (stereo not given)
inactive: endpoint: mean survival time, dose: 25.0 mg/kg/injection, schedule: Q01DX009 (ip), vehicle: saline with Tween-80 105 % of control | [1] 96 % of control | [2] 94 % of control and 95 % of control | [3] 92 % of control | [4] 91 % of control | [5] 97 % of control

C/C=C/C[P+](Cc1ccccc1)(c1ccccc1)c1ccccc1
inactive: endpoint: mean survival time, dose: 0.39 mg/kg/injection, schedule: Q01DX009 (ip), vehicle: saline 97 % of control | endpoint: mean survival time, dose: 0.78 mg/kg/injection, schedule: Q01DX009 (ip), vehicle: saline 96 % of control | endpoint: mean survival time, dose: 1.56 mg/kg/injection, schedule: Q01DX009 (ip), vehicle: saline 102 % of control | endpoint: mean survival time, dose: 3.13 mg/kg/injection, schedule: Q01DX009 (ip), vehicle: saline 103 % of control

CN(N=O)c1ccc(CC2CCc3ccccc32)cc1 (stereo not given)
inactive: endpoint: mean survival time, dose: 100.0 mg/kg/injection, schedule: Q01DX009 (ip), vehicle: Klucel (hydroxypropylcellulose) (HPC) 93 % of control | endpoint: mean survival time, dose: 200.0 mg/kg/injection, schedule: Q01DX009 (ip), vehicle: Klucel (hydroxypropylcellulose) (HPC) 98 % of control | endpoint: mean survival time, dose: 400.0 mg/kg/injection, schedule: Q01DX009 (ip), vehicle: Klucel (hydroxypropylcellulose) (HPC) 101 % of control

COc1cc(OC)c(NC(=O)Nc2cccc(SC)c2)cc1Cl
inactive: [1] 92 % of control | [2] 88 % of control

CN(C)N=Nc1ccccc1-c1nc(N)c2ccccc2n1
inactive: endpoint: mean survival time, dose: 6.25 mg/kg/injection, schedule: Q01DX005 (ip), vehicle: water 103 % of control | [6] 88 % of control | [7] 109 % of control | [8] 117 % of control | endpoint: mean survival time, dose: 100.0 mg/kg/injection, schedule: Q01DX005 (ip), vehicle: water 98 % of control

CCCCC[CH2][Sn]([CH2]C)([CH2]C)[O]C(C)=O
inactive: endpoint: mean survival time, dose: 0.5 mg/kg/injection, schedule: Q04DX003 (ip), vehicle: saline 103 % of control | endpoint: mean survival time, dose: 0.63 mg/kg/injection, schedule: Q04DX003 (ip), vehicle: saline with Tween-80 95 % of control | endpoint: mean survival time, dose: 1.0 mg/kg/injection, schedule: Q04DX003 (ip), vehicle: saline 100 % of control | endpoint: mean survival time, dose: 1.25 mg/kg/injection, schedule: Q04DX003 (ip), vehicle: saline with Tween-80 93 % of control | endpoint: mean survival time, dose: 2.0 mg/kg/injection, schedule: Q04DX003 (ip), vehicle: saline 91 % of control | endpoint: mean survival time, dose: 2.5 mg/kg/injection, schedule: Q04DX003 (ip), vehicle: saline with Tween-80 88 % of control

Cc1ccc(N/N=C/C(=O)O)cc1
inactive: endpoint: mean survival time, dose: 12.5 mg/kg/injection, schedule: Q04DX003 (ip), vehicle: other 101 % of control | endpoint: mean survival time, dose: 25.0 mg/kg/injection, schedule: Q04DX003 (ip), vehicle: other 101 % of control | endpoint: mean survival time, dose: 50.0 mg/kg/injection, schedule: Q04DX003 (ip), vehicle: other 97 % of control | endpoint: mean survival time, dose: 100.0 mg/kg/injection, schedule: Q04DX003 (ip), vehicle: other 95 % of control | endpoint: mean survival time, dose: 400.0 mg/kg/injection, schedule: Q04DX003 (ip), vehicle: other 94 % of control

NC1C(O)C(O)C(O)C(O)C1O (stereo not given)
inactive: endpoint: mean survival time, dose: 100.0 mg/kg/injection, schedule: Q01DX001 (ip), vehicle: saline 98 % of control | endpoint: mean survival time, dose: 200.0 mg/kg/injection, schedule: Q01DX001 (ip), vehicle: saline 98 % of control | endpoint: mean survival time, dose: 400.0 mg/kg/injection, schedule: Q01DX001 (ip), vehicle: saline 98 % of control

CC(=O)Nc1cc2c(ncn2C2OC(CO)C(O)C2O)c(Br)n1 (stereo not given)
inactive: [6] 93 % of control | [7] 94 % of control | [8] 98 % of control | endpoint: mean survival time, dose: 200.0 mg/kg/injection, schedule: Q01DX005 (ip), vehicle: water 94 % of control

CC(=O)ON1C(=O)c2cccc3cccc(c23)C1=O
inactive: [1] 96 % of control | [2] 102 % of control

COc1cc([N+](=O)[O-])ccc1NC(=O)N(c1ccccc1)C(C)C
inactive: endpoint: mean survival time, dose: 100.0 mg/kg/injection, schedule: Q01DX001 (ip), vehicle: saline with Tween-80 101 % of control and 112 % of control | [2] 98 % of control and 105 % of control | endpoint: mean survival time, dose: 100.0 mg/kg/injection, schedule: Q04DX002 (ip), vehicle: saline with Tween-80 96 % of control | [3] 101 % of control | endpoint: mean survival time, dose: 200.0 mg/kg/injection, schedule: Q01DX001 (ip), vehicle: saline with Tween-80 101 % of control and 104 % of control | [9] 94 % of control and 95 % of control | endpoint: mean survival time, dose: 200.0 mg/kg/injection, schedule: Q04DX002 (ip), vehicle: saline with Tween-80 98 % of control | [4] 95 % of control | endpoint: mean survival time, dose: 400.0 mg/kg/injection, schedule: Q01DX001 (ip), vehicle: saline with Tween-80 95 % of control and 97 % of control | endpoint: mean survival time, dose: 400.0 mg/kg/injection, schedule: Q01DX009 (ip), vehicle: saline with Tween-80 94 % of control and 101 % of control | endpoint: mean survival time, dose: 400.0 mg/kg/injection, schedule: Q04DX002 (ip), vehicle: saline with Tween-80 98 % of control | [5] 103 % of control

NC(=O)Nc1cc(NC(N)=O)cc(N(CCCl)CCCl)c1
inactive: endpoint: mean survival time, dose: 2.5 mg/kg/injection, schedule: Q01DX009 (ip), vehicle: Klucel (hydroxypropylcellulose) (HPC) 108 % of control | endpoint: mean survival time, dose: 5.0 mg/kg/injection, schedule: Q01DX009 (ip), vehicle: Klucel (hydroxypropylcellulose) (HPC) 111 % of control | endpoint: mean survival time, dose: 10.0 mg/kg/injection, schedule: Q01DX009 (ip), vehicle: Klucel (hydroxypropylcellulose) (HPC) 119 % of control

C[N+](C)(C)C
inactive: endpoint: mean survival time, dose: 5.0 mg/kg/injection, schedule: Q01DX001 (ip), vehicle: saline 98 % of control | endpoint: mean survival time, dose: 5.0 mg/kg/injection, schedule: Q01DX009 (ip), vehicle: saline sonified 95 % of control | endpoint: mean survival time, dose: 5.0 mg/kg/injection, schedule: Q04DX003 (ip), vehicle: saline 100 % of control | endpoint: mean survival time, dose: 6.25 mg/kg/injection, schedule: Q01DX009 (ip), vehicle: saline with Tween-80 96 % of control | endpoint: mean survival time, dose: 10.0 mg/kg/injection, schedule: Q01DX009 (ip), vehicle: saline sonified 87 % of control | endpoint: mean survival time, dose: 20.0 mg/kg/injection, schedule: Q01DX001 (ip), vehicle: saline 98 % of control

COc1cc(OC)c(NC(=O)OCC2CCCO2)cc1Cl (stereo not given)
inactive: [1] 90 % of control | [2] 97 % of control | [9] 94 % of control

Cc1cccc(C)c1Nc1n[nH]c(=S)s1
inactive: endpoint: mean survival time, dose: 100.0 mg/kg/injection, schedule: Q01DX001 (ip), vehicle: Klucel (hydroxypropylcellulose) (HPC) 97 % of control | endpoint: mean survival time, dose: 200.0 mg/kg/injection, schedule: Q01DX001 (ip), vehicle: Klucel (hydroxypropylcellulose) (HPC) 101 % of control | endpoint: mean survival time, dose: 400.0 mg/kg/injection, schedule: Q01DX001 (ip), vehicle: Klucel (hydroxypropylcellulose) (HPC) 101 % of control

COc1cc2c(cc1OC)C1Cc3ccc4cc(OC)c(OC)cc4c3CN1CC2 (stereo not given)
inactive: endpoint: mean survival time, dose: 100.0 mg/kg/injection, schedule: Q01DX009 (ip), vehicle: saline 94 % of control | [3] 102 % of control | [4] 93 % of control | [5] 94 % of control

CC1CC(C)(C)NC(CCC2NC(C)(C)CC(C)O2)O1 (stereo not given)
inactive: [2] 92 % of control

From PubChem BioAssay AID256 (DTP/NCI, 2004)
